Measurements reported in patent US11959929B2, “Method of quantifying lysergic acid diethylamide (LSD) and 2,3-dihydro-3-hydroxy-2-oxo lysergide (O-H-LSD) in human plasma” (Universitatsspital Basel, priority 2020, dated 2024).
“And” between values parts separate entries of the source, which are not always exact repeats. Identical values can stand only once.

Assays:
[1] = Clinical application: plasma concentration-time profile of LSD and O-H-LSD after a single oral 5 μg LSD dose in healthy volunteers; format: in vivo, human; conditions: three healthy volunteers
Protocol: To examine the application of the developed method, LSD and O-H-LSD concentrations were quantified in plasma samples of three healthy volunteers receiving a single oral dose of 5 μg. This corresponds to a very low LSD dose, used in LSD microdosing clinical trials (Holze et al., 2021a). The study was conducted in accordance with the Declaration of Helsinki and approved by the Medical Ethics Committee of the Academic Hospital of Maastricht and Maastricht University. The use of LSD in humans was authorized by the Dutch Drug Enforcement Administration. All volunteers provided written informed consent prior to study participation. To establish concentration time profiles, blood samples were collected in lithium heparin coated tubes at the following time points: 0, 0.5, 1, 1.5, 2, 3, 4, 6 after treatment. Blood samples were centrifuged, and plasma was frozen at −20° C. until analysis.
The application of the method was assessed by analyzing the PK of LSD and O-H-LSD in three healthy volunteers treated with an oral dose of 5 μg LSD base (FIG. 5). An oral dose of 5 μg LSD base in ethanol (Holze et al., 2021) was administered to three healthy volunteers. Plasma concentrations of LSD and O-H-LSD were quantified before and up to six hours post-treatment. […] Mean values and the standard deviations are illustrated.
The maximal plasma level of LSD and O-H-LSD was on average 178 pg/ml (SD: 30.6 pg/ml) and 10.4 pg/ml (SD: 2.59 pg/ml), respectively. LSD reached Tmax approximately after 1 hour post-treatment, whereas O-H-LSD peaked after 3 hours. The LSD concentrations measured after a dose of only 5 μg were approximately 7 to 18 times higher than the methods limit of quantification. Thus, the PK of LSD could straightforwardly be established also for very low so-called microdoses (Kuypers et al., 2019). In the case of O-H-LSD, a larger amount of plasma sample was required to determine the plasma concentration time profile after a dose of 5 μg. Three times more plasma was utilized (150 instead of 50 μl), which was extracted as outlined above using however three-fold more acetonitrile for the extraction. Sensitivity was increased by evaporating the extract and reconstituting the residue in a mixture of 150 μl of mobile phase A and mobile phase B (9/1 v/v). […] In future, it will also be considered to inject a larger amount of extract, which is in a first step retained and concentrated on a trapping column. In a second step, the direction of the flow is inverted and so that the sample can be loaded and eluted on the analytical column. This column switching procedure, will increase the sensitivity in the event that the sample can be retained on the trap column. Importantly, the time-consuming solvent evaporation step can thereby be avoided.

[2] = Freeze/thaw stability tests in human plasma (three cycles, about −20° C.); format: physicochemical; conditions: for Change in concentration [%]: 3 F/T cycles vs Baseline; for Accuracy: single QC replicate
Text: (§1) Each analyte had to be stable in human plasma for at least three freeze-thaw cycles (for repeated sample preparations) and at ambient temperature for at least eight hours (maximal duration of sample preparation). Measured samples should be stable for a second injection when the first analytical run was not valid. The analytes had to be stable in the matrix at the intended storage temperatures and study duration.
(§2) An analyte was considered stable at one of the above tests when no increase or decrease of the analyte concentration of more than 15% for the mean of at least three analyzed QC samples at low, medium and at high concentration was observed.
Seven of each LLOQ, QCLOW, QCMID, QCHIGH, and ULOQ sample in human plasma were stored at about −20° C. for at least 24 hours and thawed unassisted at ambient temperature. When completely thawed, the samples were refrozen for at least 12 hours under the same conditions. The freeze-thaw cycle was repeated two more times. After the third cycle the samples were worked up and analyzed. The concentrations in the frozen and thawed samples were compared with freshly processed QC samples. Concentrations were calculated based on two freshly prepared CALs measured at the beginning and the other at the end of the validation run.

[3] = Reinjection reproducibility of worked-up plasma samples (overnight at 10° C. in autosampler; 1 week at −20° C.); format: physicochemical, human; conditions: for Change in concentration: 1 night at 10° C. in the autosampler vs Baseline; for Change in concentration [%]: 8 days at −20° C. vs Baseline; for Accuracy: single QC replicate
Text: as §1, §2
Worked-up and measured Cal and QC samples (prepared in human plasma) of a valid run were repeatedly analyzed. Reinjection was performed after overnight storage at 10° C. (autosampler) and after 1-week storage at −20° C. The run was checked according to the acceptance criteria for validation runs. The calculated mean values for QC samples were compared between the original and reinjected run.

[4] = QCHIGH: 1000 pg/ml, 3 F/T cycles
[5] = ULOQ: 10000 pg/ml, 3 F/T cycles
[6] = LLOQ: 10 pg/ml, reinjection after 8 days at −20° C.
[7] = QCHIGH: 1000 pg/ml, reinjection after 8 days at −20° C.
[8] = QCLOW: 25 pg/ml, reinjection after 8 days at −20° C.
[9] = QCMID: 100 pg/ml, reinjection after 8 days at −20° C.
[10] = ULOQ: 10000 pg/ml, reinjection after 8 days at −20° C.

## CCN(CC)C(=O)C1C=C2c3cccc4c3C(O)(C[C@H]2N(C)C1)C(=O)N4 (some centres unmarked) [O-H-LSD, 2,3-dihydro-3-hydroxy-2-oxo lysergide]
[1]; single oral dose of 5 μg LSD base
  Tmax (time of peak plasma level post-treatment): 3 h
[1]; single oral dose of 5 μg LSD base in ethanol, LC-MS/MS, O-H-LSD measured as metabolite using 150 μl plasma
  maximal plasma level (average): 10.4 pg/mL
[2]; LLOQ: 10 pg/ml, 3 F/T cycles
  Accuracy, Intra-assay Mean: 97%
  Found at, Intra-assay Mean: 9.7 pg/mL
  Accuracy: 95.9% and 97.1% and 81.7% and 95.2% and 108% and 104% and 73.9* %
[2]; LLOQ: 10 pg/ml
  Change in concentration [%]: 6.46%
[2]; LLOQ: 10 pg/ml, Baseline
  Accuracy, Intra-assay Mean: 91.1%
  Found at, Intra-assay Mean: 9.11 pg/mL
  Accuracy: 95% and 88.9% and 89.4%
[2]; [4]
  Accuracy, Intra-assay Mean: 96.7%
  Found at, Intra-assay Mean: 967 pg/mL
  Accuracy: 95% and 93.1% and 97.5% and 96.2% and 99.5% and 97.7% and 98.1%
[2]; QCHIGH: 1000 pg/ml
  Change in concentration [%]: 0.123%
[2]; QCHIGH: 1000 pg/ml, Baseline
  Accuracy, Intra-assay Mean: 96.6%
  Found at, Intra-assay Mean: 966 pg/mL
  Accuracy: 97.7% and 96.2% and 95.9%
[2]; QCLOW: 25 pg/ml, 3 F/T cycles
  Accuracy, Intra-assay Mean: 96.9%
  Found at, Intra-assay Mean: 24.2 pg/mL
  Accuracy: 109% and 96.6% and 91.4% and 101% and 97.5% and 89.3% and 92.9%
[2]; QCLOW: 25 pg/ml
  Change in concentration [%]: 1.57%
[2]; QCLOW: 25 pg/ml, Baseline
  Accuracy, Intra-assay Mean: 95.3%
  Found at, Intra-assay Mean: 23.8 pg/mL
  Accuracy: 94.7% and 91.5% and 99.8%
[2]; QCMID: 100 pg/ml, 3 F/T cycles
  Accuracy, Intra-assay Mean: 98.7%
  Found at, Intra-assay Mean: 98.7 pg/mL
  Accuracy: 95.4% and 102% (2×) and 98.9% and 100% and 94.8% and 97.3%
[2]; QCMID: 100 pg/ml
  Change in concentration [%]: 3.7%
[2]; QCMID: 100 pg/ml, Baseline
  Accuracy, Intra-assay Mean: 95.2%
  Found at, Intra-assay Mean: 95.2 pg/mL
  Accuracy: 95.7% and 98.6% and 91.4%
[2]; [5]
  Accuracy, Intra-assay Mean: 94.9%
  Found at, Intra-assay Mean: 9490 pg/mL
  Accuracy: 92.9% and 92.6% and 96.2% and 96% and 94.8% and 94.4% and 97.2%
[2]; ULOQ: 10000 pg/ml
  Change in concentration [%]: −0.589%
[2]; ULOQ: 10000 pg/ml, Baseline
  Accuracy, Intra-assay Mean: 95.4%
  Found at, Intra-assay Mean: 9540 pg/mL
  Accuracy: 94.2% and 92.3% and 99.7%
[2]; human plasma QC samples, −20° C., three freeze/thaw cycles, vs freshly processed QC
  Change in plasma concentration following three freeze/thaw cycles: ≤ 6.46%
[3]; LLOQ: 10 pg/ml
  Change in concentration: 1.86%
  Change in concentration [%]: −2.09%
[3]; QCHIGH: 1000 pg/ml
  Change in concentration: 2.08%
  Change in concentration [%]: −1.05%
[3]; QCLOW: 25 pg/ml
  Change in concentration: −0.149%
  Change in concentration [%]: −0.294%
[3]; QCMID: 100 pg/ml
  Change in concentration: −1.59%
  Change in concentration [%]: 1.9%
[3]; ULOQ: 10000 pg/ml
  Change in concentration: 0.101%
  Change in concentration [%]: −1.27%
[3]; LLOQ: 10 pg/ml, Baseline
  Accuracy, Intra-assay Mean: 107%
  Found at, Intra-assay Mean: 10.7 pg/mL
  Accuracy: 108% and 113% and 102% and 88.5% and 120% and 97.8% and 116%
[3]; [6]
  Accuracy, Intra-assay Mean: 104%
  Found at, Intra-assay Mean: 10.4 pg/mL
  Accuracy: 99.5% and 106% and 116% and 107% and 94.2% and 93.9% and 113%
[3]; QCHIGH: 1000 pg/ml, Baseline
  Accuracy, Intra-assay Mean: 103%
  Found at, Intra-assay Mean: 1030 pg/mL
  Accuracy: 103% (2×) and 105% (2×) and 99.6% and 99% and 106%
[3]; [7]
  Accuracy, Intra-assay Mean: 102%
  Found at, Intra-assay Mean: 1020 pg/mL
  Accuracy: 101% (2×) and 105% and 99.3% and 100% and 102% and 104%
[3]; QCLOW: 25 pg/ml, Baseline
  Accuracy, Intra-assay Mean: 105%
  Found at, Intra-assay Mean: 26.2 pg/mL
  Accuracy: 103% and 116* % and 108% (2×) and 109% and 101% and 100%
[3]; [8]
  Accuracy, Intra-assay Mean: 105%
  Found at, Intra-assay Mean: 26.1 pg/mL
  Accuracy: 104% (2×) and 115% and 109% and 96.5% and 108% and 97.3%
[3]; QCMID: 100 pg/ml, Baseline
  Accuracy, Intra-assay Mean: 103%
  Found at, Intra-assay Mean: 103 pg/mL
  Accuracy: 101% and 102% (2×) and 104% and 106% and 108% and 98.5%
[3]; [9]
  Accuracy, Intra-assay Mean: 105%
  Found at, Intra-assay Mean: 105 pg/mL
  Accuracy: 109% (2×) and 98% and 104% and 106% and 102% and 107%
[3]; ULOQ: 10000 pg/ml, Baseline
  Accuracy, Intra-assay Mean: 100%
  Found at, Intra-assay Mean: 10000 pg/mL
  Accuracy: 101% (2×) and 98.5% and 98.4% and 97.7% and 102% (2×)
[3]; [10]
  Accuracy, Intra-assay Mean: 98.8%
  Found at, Intra-assay Mean: 9880 pg/mL
  Accuracy: 97.3% and 97.6% and 97.5% and 96.9% and 103% and 98.8% and 101%
[3]; worked-up human plasma samples, 8 days at −20° C.
  Deviations of the means of the QCs of the two runs (reinjection) after 8 days at −20° C.: −2.09% to +1.9
[3]; worked-up human plasma samples, overnight at 10° C. in the autosampler
  Deviations of the means of the QCs of the two runs (reinjection) after overnight storage at 10° C.: −1.59% to +2.08
